We go through one compound from patent publication US20080241234A1, “PHARMACEUTICAL FORMULATIONS OF AN ANHYDRATE CRYSTAL FORM OF 2-(3-FLUORO-4-HYDROXYPHENYL)-7-VINYL-1,3-BENZOXAZOL-5-OL” (WYETH, priority 2006, published 2008).

This data set is described as follows: Crystal form conversion on suspending and stirring in a solvent at room temperature. In kind it is physicochemical. An excerpt:
The anhydrate crystal form (Form E) can be converted to other crystal forms under suitable conditions. […] 6, 2006).

On to `C=Cc1cc(O)cc2nc(-c3ccc(O)c(F)c3)oc12` [Form E, 2-(3-fluoro-4-hydroxyphenyl)-7-vinyl-1,3-benzoxazol-5-ol], for which, where the note is “suspended and stirred in ethanol or acetone at room temperature for seven days”, the “crystal form obtained after suspension and stirring in ethanol or acetone” value is “another anhydrate crystal form is obtained”. Besides, for the setting “suspended and stirred in water at room temperature for seven days”, the “crystal form obtained after suspension and stirring in water” value is recorded as “converted to a hydrate crystal form”.
